Data: US20080009418A1, “Selective Inhibitors” (Alchemia LTD., priority 2004, published 2008)

Key:
Settings in all cases: compound at 10 μM
Human δ-opioid (DOP) = biological target: T1, Human δ-opioid (DOP) (Homo sapiens, UniProt P41143); assay: Radioligand binding, human δ-opioid (DOP) membranes, FlashPlate, [3H]-Bremazocine
T1 construct: purchased Perkin Elmer Biosignal
Outline: (§1)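 Cloned human receptor membranes were coated onto FlashPlate wells and incubated with radioligand and compound (added from a 0.5 mM DMSO daughter plate) for 1 hour at room temperature in the dark. Scintillation counting gave percent inhibition, with DMSO defining total and reference ligand defining non-specific binding.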

Human opioid (ORL1) = biological target: T2, Human opioid (ORL1) (Homo sapiens, UniProt P41146); assay: Radioligand binding, human opioid ORL1 membranes, FlashPlate, [125I]-Nociceptin
T2 construct: purchased Perkin Elmer Biosignal
T2 sequence (P41146 whole entry): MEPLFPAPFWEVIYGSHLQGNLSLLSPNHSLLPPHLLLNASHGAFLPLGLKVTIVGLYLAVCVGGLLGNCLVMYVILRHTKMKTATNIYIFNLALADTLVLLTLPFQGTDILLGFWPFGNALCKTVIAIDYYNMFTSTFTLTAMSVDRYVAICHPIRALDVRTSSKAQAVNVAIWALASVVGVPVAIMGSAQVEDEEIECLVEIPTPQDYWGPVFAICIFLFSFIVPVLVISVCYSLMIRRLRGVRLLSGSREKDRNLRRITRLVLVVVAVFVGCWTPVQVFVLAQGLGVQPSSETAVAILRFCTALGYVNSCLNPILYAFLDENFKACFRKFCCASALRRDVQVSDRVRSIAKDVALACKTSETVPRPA
Outline: as §1

Human Melanocortin (MC4) = biological target: T3, Human Melanocortin (MC4) (Homo sapiens, UniProt P32245); assay: Radioligand binding, human melanocortin MC4 membranes, FlashPlate, [125I]-NDP-αMSH
T3 construct: purchased Perkin Elmer Biosignal
T3 sequence (P32245 whole entry): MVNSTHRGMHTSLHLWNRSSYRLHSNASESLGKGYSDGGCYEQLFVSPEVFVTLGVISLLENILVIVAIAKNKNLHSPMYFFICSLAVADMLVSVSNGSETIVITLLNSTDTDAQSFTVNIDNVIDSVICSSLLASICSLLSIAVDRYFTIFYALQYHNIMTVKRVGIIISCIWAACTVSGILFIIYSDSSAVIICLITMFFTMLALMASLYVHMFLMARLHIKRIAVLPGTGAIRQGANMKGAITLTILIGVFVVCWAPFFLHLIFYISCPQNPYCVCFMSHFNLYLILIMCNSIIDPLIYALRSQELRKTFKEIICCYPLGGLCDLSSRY
Outline: as §1

Human neurokinin (NK1) = biological target: T4, Human neurokinin (NK1) (Homo sapiens, UniProt P25103); assay: Radioligand binding, human neurokinin NK1 membranes, filtration, [125I]-Substance P
T4 construct: purchased Perkin Elmer Biosignal
T4 sequence (P25103 whole entry): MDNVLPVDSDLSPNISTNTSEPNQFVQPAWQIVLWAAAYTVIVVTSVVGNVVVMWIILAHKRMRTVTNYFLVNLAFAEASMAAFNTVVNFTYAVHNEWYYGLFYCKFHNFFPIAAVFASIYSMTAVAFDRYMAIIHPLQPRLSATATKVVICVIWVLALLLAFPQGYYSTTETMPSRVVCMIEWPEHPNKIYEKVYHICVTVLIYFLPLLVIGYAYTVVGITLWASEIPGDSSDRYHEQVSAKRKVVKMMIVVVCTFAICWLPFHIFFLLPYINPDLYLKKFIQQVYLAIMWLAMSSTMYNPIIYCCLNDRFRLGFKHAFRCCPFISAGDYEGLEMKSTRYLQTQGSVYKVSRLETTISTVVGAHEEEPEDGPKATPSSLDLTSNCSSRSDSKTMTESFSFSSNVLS
Outline: (§2)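 Percent inhibition of radioligand binding measured on recombinant human membranes: NK1 with [125I]-Substance P, KOP with [3H]-Diprenorphine. Incubation 1 h at room temperature, then harvest onto 0.3% PEI-soaked filters, cold Tris-HCl pH 7.4 washes and scintillation counting; non-specific binding from reference ligand wells.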

[1] = biological target: T5, Human melanin-concentrating hormone (MCH1) (Homo sapiens, UniProt Q99705); assay: Radioligand binding, human melanin-concentrating hormone MCH1 membranes, FlashPlate, [125I]-S36057
T5 construct: purchased Perkin Elmer Biosignal
T5 sequence (Q99705 whole entry): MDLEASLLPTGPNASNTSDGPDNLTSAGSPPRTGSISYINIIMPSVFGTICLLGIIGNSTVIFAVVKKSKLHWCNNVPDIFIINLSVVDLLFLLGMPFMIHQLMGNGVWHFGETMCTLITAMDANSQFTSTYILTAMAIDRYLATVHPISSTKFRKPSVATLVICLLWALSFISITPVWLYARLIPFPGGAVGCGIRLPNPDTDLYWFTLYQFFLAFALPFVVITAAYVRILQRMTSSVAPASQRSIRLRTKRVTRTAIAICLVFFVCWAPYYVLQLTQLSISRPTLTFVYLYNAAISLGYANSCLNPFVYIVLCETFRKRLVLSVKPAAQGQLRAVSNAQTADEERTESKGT
Outline: as §1

Mouse urotensin (mUR2) = biological target: T6, Mouse urotensin (mUR2) (Mus musculus, UniProt Q8VIH9); assay: Radioligand binding, mouse urotensin mUR2 membranes, FlashPlate, [125I]-Urotensin II
T6 construct: purchased Perkin Elmer Biosignal
T6 sequence (Q8VIH9 1-385): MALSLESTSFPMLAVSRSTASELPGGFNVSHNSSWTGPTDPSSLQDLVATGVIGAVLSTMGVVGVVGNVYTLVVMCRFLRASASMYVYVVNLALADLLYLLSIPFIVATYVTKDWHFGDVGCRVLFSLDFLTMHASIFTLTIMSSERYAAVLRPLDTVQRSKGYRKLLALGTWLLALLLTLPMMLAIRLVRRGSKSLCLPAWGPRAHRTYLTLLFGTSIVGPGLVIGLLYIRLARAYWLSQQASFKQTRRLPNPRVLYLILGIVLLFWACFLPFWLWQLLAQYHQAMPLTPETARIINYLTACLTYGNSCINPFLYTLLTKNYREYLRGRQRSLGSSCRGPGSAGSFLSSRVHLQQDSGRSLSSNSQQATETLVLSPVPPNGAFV
Outline: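 Cloned mouse urotensin (mUR2) receptor membranes from Perkin Elmer Biosignal were immobilized in FlashPlate microplates using a proprietary coating. Each well got 19.5 μl buffer, then 0.5 μl of DMSO, reference ligand, or compound. Adding 5 μl of [125I]-Urotensin II, diluted to 5× final concentration in binding buffer, started binding. Plates were sealed with TopSeal-A and incubated 1 hour at room temperature in the dark. Wells were counted for 30 seconds each on a TopCount after a 60-second delay, and percentage inhibition was calculated.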

[2] = biological target: T7, Human neuropeptide Y (NPY-Y1) (Homo sapiens, UniProt P25929); assay: Radioligand binding, human neuropeptide Y NPY-Y1 membranes, FlashPlate, [125I]-PYY
T7 construct: purchased Perkin Elmer Biosignal
T7 sequence (P25929 1-384): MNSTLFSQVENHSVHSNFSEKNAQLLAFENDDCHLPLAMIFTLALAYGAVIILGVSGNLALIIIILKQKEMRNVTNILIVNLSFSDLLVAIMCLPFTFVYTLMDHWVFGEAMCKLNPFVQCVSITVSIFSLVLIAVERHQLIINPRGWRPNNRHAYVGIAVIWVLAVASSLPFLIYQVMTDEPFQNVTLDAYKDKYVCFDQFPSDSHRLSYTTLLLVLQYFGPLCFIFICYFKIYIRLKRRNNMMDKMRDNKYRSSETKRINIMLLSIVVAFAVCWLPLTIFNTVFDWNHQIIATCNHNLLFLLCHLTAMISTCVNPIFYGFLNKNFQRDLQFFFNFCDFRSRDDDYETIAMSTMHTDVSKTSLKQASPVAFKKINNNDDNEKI
Outline: as §1

Human μ-opioid (MOP) = biological target: T8, Human μ-opioid (MOP) (Homo sapiens, UniProt P35372); assay: Radioligand binding, human μ-opioid (MOP) membranes, FlashPlate, [3H]-Naloxone
T8 construct: purchased Perkin Elmer Biosignal
T8 sequence (P35372 whole entry): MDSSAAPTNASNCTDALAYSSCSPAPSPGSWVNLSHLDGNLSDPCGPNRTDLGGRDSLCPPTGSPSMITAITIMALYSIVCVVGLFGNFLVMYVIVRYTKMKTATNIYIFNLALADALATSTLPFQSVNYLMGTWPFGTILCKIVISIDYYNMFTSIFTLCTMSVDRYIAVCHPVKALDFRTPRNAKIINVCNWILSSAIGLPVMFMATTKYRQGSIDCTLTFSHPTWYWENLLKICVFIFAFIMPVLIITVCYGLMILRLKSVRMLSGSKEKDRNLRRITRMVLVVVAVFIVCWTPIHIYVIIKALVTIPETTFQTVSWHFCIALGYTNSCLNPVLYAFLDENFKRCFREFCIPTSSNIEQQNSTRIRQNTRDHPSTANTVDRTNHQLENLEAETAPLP
Outline: as §1

Human κ-Opioid (KOP) = biological target: T9, Human κ-Opioid (KOP) (Homo sapiens, UniProt P41145); assay: Radioligand binding, human κ-opioid (KOP) membranes, filtration, [3H]-Diprenorphine
T9 construct: purchased Perkin Elmer Biosignal
T9 sequence (P41145 whole entry): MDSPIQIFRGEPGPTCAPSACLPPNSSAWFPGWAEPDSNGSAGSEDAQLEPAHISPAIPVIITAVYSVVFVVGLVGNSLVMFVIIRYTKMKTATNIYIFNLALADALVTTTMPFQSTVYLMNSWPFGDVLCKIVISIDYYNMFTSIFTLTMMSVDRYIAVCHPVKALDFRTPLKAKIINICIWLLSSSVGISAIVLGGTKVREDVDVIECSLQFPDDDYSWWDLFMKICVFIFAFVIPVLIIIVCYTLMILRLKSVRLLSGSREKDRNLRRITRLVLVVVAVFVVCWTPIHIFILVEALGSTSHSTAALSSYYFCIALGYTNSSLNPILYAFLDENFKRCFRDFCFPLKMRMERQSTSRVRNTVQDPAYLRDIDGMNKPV
Outline: as §2

Human melanocortin (MC5) = biological target: T10, Human melanocortin (MC5) (Homo sapiens, UniProt P33032); assay: Radioligand binding, human melanocortin MC5 membranes, FlashPlate, [125I]-NDP-αMSH
T10 construct: purchased Perkin Elmer Biosignal
T10 sequence (P33032 whole entry): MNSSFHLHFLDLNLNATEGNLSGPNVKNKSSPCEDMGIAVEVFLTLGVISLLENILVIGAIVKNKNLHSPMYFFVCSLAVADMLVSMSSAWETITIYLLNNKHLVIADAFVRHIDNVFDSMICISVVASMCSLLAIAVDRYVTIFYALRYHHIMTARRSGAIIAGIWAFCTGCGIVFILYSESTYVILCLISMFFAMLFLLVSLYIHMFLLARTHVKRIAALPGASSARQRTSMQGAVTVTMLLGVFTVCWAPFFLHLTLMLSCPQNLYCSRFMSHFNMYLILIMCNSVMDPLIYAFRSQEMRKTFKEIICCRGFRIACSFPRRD
Outline: as §1

Human Melanocortin (MC3) = biological target: T11, Human Melanocortin (MC3) (Homo sapiens, UniProt P41968); assay: Radioligand binding, human melanocortin MC3 membranes, FlashPlate, [125I]-NDP-αMSH
T11 construct: purchased Perkin Elmer Biosignal
T11 sequence (P41968 whole entry): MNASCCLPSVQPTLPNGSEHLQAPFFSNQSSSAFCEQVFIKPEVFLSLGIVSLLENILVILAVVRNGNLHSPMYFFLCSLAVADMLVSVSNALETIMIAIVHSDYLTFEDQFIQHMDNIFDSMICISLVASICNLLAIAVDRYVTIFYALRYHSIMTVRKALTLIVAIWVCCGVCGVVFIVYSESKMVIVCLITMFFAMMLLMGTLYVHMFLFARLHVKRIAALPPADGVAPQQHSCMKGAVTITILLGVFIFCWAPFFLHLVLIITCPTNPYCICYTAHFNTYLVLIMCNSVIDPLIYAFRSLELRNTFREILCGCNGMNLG
Outline: as §1

[3] = [3H]-Bremazocine, human DOP membranes
[4] = [125I]-Substance P, human NK1 membranes
[5] = [125I]-Urotensin II, mouse mUR2 membranes
[6] = [125I]-PYY, human NPY-Y1 membranes
[7] = [3H]-Diprenorphine, human KOP membranes
[8] = [125I]-NDP-αMSH, human MC5 membranes

T1 sequence (P41143 whole entry): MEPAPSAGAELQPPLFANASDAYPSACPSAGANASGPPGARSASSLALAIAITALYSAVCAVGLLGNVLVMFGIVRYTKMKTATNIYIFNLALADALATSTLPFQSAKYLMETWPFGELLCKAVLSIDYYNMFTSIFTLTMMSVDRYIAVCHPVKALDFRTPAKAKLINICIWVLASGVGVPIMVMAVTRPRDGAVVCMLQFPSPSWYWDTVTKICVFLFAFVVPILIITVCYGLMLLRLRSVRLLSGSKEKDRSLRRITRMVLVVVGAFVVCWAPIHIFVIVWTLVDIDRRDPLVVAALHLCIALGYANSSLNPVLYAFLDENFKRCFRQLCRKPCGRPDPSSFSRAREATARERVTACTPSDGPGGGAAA

SMILES: COCC1OC(OCc2ccc3ccccc3c2)C(NC(=O)CNC(=N)N)C(OCc2ccc(-c3ccccc3)cc2)C1O (stereo not shown) [compound 242]
- A1: inhibition of radioligand binding (Human δ-opioid (DOP); [3H]-Bremazocine, FlashPlate): − (“−” indicates less than 50% inhibition at 10 μM)
- A10: inhibition of radioligand binding (Human opioid (ORL1); [125I]-Nociceptin, FlashPlate): − (“−” indicates less than 50% inhibition at 10 μM)
- A4: inhibition of radioligand binding (Human Melanocortin (MC4); [125I]-NDP-αMSH, FlashPlate): + (“+” indicates greater than 50% inhibition at 10 μM)
- A8: inhibition of radioligand binding (Human neurokinin (NK1); [125I]-Substance P, filtration): + (“+” indicates greater than 50% inhibition at 10 μM)
- A6: inhibition of radioligand binding ([1]; [125I]-S36057, FlashPlate): − (“−” indicates less than 50% inhibition at 10 μM)
- A11: inhibition of radioligand binding (Mouse urotensin (mUR2); [125I]-Urotensin II, FlashPlate): − (“−” indicates less than 50% inhibition at 10 μM)
- A9: inhibition of radioligand binding ([2]; [125I]-PYY, FlashPlate): − (“−” indicates less than 50% inhibition at 10 μM)
- A7: inhibition of radioligand binding (Human μ-opioid (MOP); [3H]-Naloxone, FlashPlate): − (“−” indicates less than 50% inhibition at 10 μM)
- A2: inhibition of radioligand binding (Human κ-Opioid (KOP); [3H]-Diprenorphine, filtration): − (“−” indicates less than 50% inhibition at 10 μM)
- A5: inhibition of radioligand binding (Human melanocortin (MC5); [125I]-NDP-αMSH, FlashPlate): + (“+” indicates greater than 50% inhibition at 10 μM)
- A3: inhibition of radioligand binding (Human Melanocortin (MC3); [125I]-NDP-αMSH, FlashPlate): + (“+” indicates greater than 50% inhibition at 10 μM)

SMILES: NCCCC(=O)NC1C(OCc2ccc3ccccc3c2)OC(COCc2ccc3ccccc3c2)C(O)C1OCc1ccc2ccccc2c1 (single isomer, unassigned) [compound 460]
- A1: inhibition of radioligand binding (Human δ-opioid (DOP); [3]): − (“−” indicates less than 50% inhibition at 10 μM)
- A10: inhibition of radioligand binding (Human opioid (ORL1); [125I]-Nociceptin, human ORL1 membranes, 10 µM): − (“−” indicates less than 50% inhibition at 10 μM)
- A4: inhibition of radioligand binding (Human Melanocortin (MC4); [125I]-NDP-αMSH, human MC4 membranes, 10 µM): − (“−” indicates less than 50% inhibition at 10 μM)
- A8: inhibition of radioligand binding (Human neurokinin (NK1); [4]): + (“+” indicates greater than 50% inhibition at 10 μM)
- A6: inhibition of radioligand binding ([1]; [125I]-S36057, human MCH1 membranes, 10 µM): − (“−” indicates less than 50% inhibition at 10 μM)
- A11: inhibition of radioligand binding (Mouse urotensin (mUR2); [5]): − (“−” indicates less than 50% inhibition at 10 μM)
- A9: inhibition of radioligand binding [2, 6]: − (“−” indicates less than 50% inhibition at 10 μM)
- A7: inhibition of radioligand binding (Human μ-opioid (MOP); [3H]-Naloxone, human MOP membranes, 10 µM): − (“−” indicates less than 50% inhibition at 10 μM)
- A2: inhibition of radioligand binding (Human κ-Opioid (KOP); [7]): − (“−” indicates less than 50% inhibition at 10 μM)
- A5: inhibition of radioligand binding (Human melanocortin (MC5); [8]): + (“+” indicates greater than 50% inhibition at 10 μM)
- A3: inhibition of radioligand binding (Human Melanocortin (MC3); [125I]-NDP-αMSH, human MC3 membranes, 10 µM): − (“−” indicates less than 50% inhibition at 10 μM)

SMILES: COCC1OC(OCc2ccccc2)C(NC(=O)CCCNC(=N)N)C(OCc2ccc(-c3ccccc3)cc2)C1O (stereo not shown) [compound 187]
- A1 radioligand binding, percentage inhibition (Human δ-opioid (DOP); [3H]-Bremazocine): − (“−” indicates less than 50% inhibition at 10 μM)
- A10 radioligand binding, percentage inhibition (Human opioid (ORL1); [125I]-Nociceptin): − (“−” indicates less than 50% inhibition at 10 μM)
- A4 radioligand binding, percentage inhibition (Human Melanocortin (MC4); [125I]-NDP-αMSH): + (“+” indicates greater than 50% inhibition at 10 μM)
- A8 radioligand binding, percentage inhibition (Human neurokinin (NK1); [125I]-Substance P): + (“+” indicates greater than 50% inhibition at 10 μM)
- A6 radioligand binding, percentage inhibition ([1]; [125I]-S36057): + (“+” indicates greater than 50% inhibition at 10 μM)
- A11 radioligand binding, percentage inhibition (Mouse urotensin (mUR2); [125I]-Urotensin II): − (“−” indicates less than 50% inhibition at 10 μM)
- A9 radioligand binding, percentage inhibition ([2]; [125I]-PYY): − (“−” indicates less than 50% inhibition at 10 μM)
- A7 radioligand binding, percentage inhibition (Human μ-opioid (MOP); [3H]-Naloxone): − (“−” indicates less than 50% inhibition at 10 μM)
- A2 radioligand binding, percentage inhibition (Human κ-Opioid (KOP); [3H]-Diprenorphine): − (“−” indicates less than 50% inhibition at 10 μM)
- A5 radioligand binding, percentage inhibition (Human melanocortin (MC5); [125I]-NDP-αMSH): + (“+” indicates greater than 50% inhibition at 10 μM)
- A3 radioligand binding, percentage inhibition (Human Melanocortin (MC3); [125I]-NDP-αMSH): − (“−” indicates less than 50% inhibition at 10 μM)

SMILES: N=C(N)NCCC(=O)NC1C(OCc2ccc(-c3ccccc3)cc2)OC(COCc2ccc(Cl)cc2)C(O)C1OCc1ccc(Cl)cc1 (stereo not shown) [compound 410]
- A1: inhibition of radioligand binding (Human δ-opioid (DOP); [3]): − (“−” indicates less than 50% inhibition at 10 μM)
- A10: inhibition of radioligand binding (Human opioid (ORL1); [125I]-Nociceptin, human ORL1 membranes): + (“+” indicates greater than 50% inhibition at 10 μM)
- A4: inhibition of radioligand binding (Human Melanocortin (MC4); [125I]-NDP-αMSH, human MC4 membranes): + (“+” indicates greater than 50% inhibition at 10 μM)
- A8: inhibition of radioligand binding (Human neurokinin (NK1); [4]): + (“+” indicates greater than 50% inhibition at 10 μM)
- A6: inhibition of radioligand binding ([1]; [125I]-S36057, human MCH1 membranes): + (“+” indicates greater than 50% inhibition at 10 μM)
- A11: inhibition of radioligand binding (Mouse urotensin (mUR2); [5]): − (“−” indicates less than 50% inhibition at 10 μM)
- A9: inhibition of radioligand binding [2, 6]: − (“−” indicates less than 50% inhibition at 10 μM)
- A7: inhibition of radioligand binding (Human μ-opioid (MOP); [3H]-Naloxone, human MOP membranes): − (“−” indicates less than 50% inhibition at 10 μM)
- A2: inhibition of radioligand binding (Human κ-Opioid (KOP); [7]): − (“−” indicates less than 50% inhibition at 10 μM)
- A5: inhibition of radioligand binding (Human melanocortin (MC5); [8]): + (“+” indicates greater than 50% inhibition at 10 μM)
- A3: inhibition of radioligand binding (Human Melanocortin (MC3); [125I]-NDP-αMSH, human MC3 membranes): + (“+” indicates greater than 50% inhibition at 10 μM)

SMILES: COC[C@H]1OC(OCc2ccc(Cl)cc2)[C@H](NC(=O)CNC(=N)N)[C@@H](OCc2ccc(Cl)cc2)[C@@H]1O (stereo partly shown) [compound 37]
- A1 radioligand binding inhibition (Human δ-opioid (DOP); human δ-opioid (DOP) membranes): − (“−” indicates less than 50% inhibition at 10 μM)
- A10 radioligand binding inhibition (Human opioid (ORL1); human ORL1 membranes): − (“−” indicates less than 50% inhibition at 10 μM)
- A4 radioligand binding inhibition (Human Melanocortin (MC4); human melanocortin MC4 membranes): + (“+” indicates greater than 50% inhibition at 10 μM)
- A8 radioligand binding inhibition (Human neurokinin (NK1); human neurokinin NK1 membranes): − (“−” indicates less than 50% inhibition at 10 μM)
- A6 radioligand binding inhibition ([1]; human MCH1 membranes): + (“+” indicates greater than 50% inhibition at 10 μM)
- A11 radioligand binding inhibition (Mouse urotensin (mUR2); mouse urotensin mUR2 membranes): − (“−” indicates less than 50% inhibition at 10 μM)
- A9 radioligand binding inhibition ([2]; human NPY-Y1 membranes): − (“−” indicates less than 50% inhibition at 10 μM)
- A7 radioligand binding inhibition (Human μ-opioid (MOP); human μ-opioid (MOP) membranes): − (“−” indicates less than 50% inhibition at 10 μM)
- A2 radioligand binding inhibition (Human κ-Opioid (KOP); human κ-opioid (KOP) membranes): − (“−” indicates less than 50% inhibition at 10 μM)
- A5 radioligand binding inhibition (Human melanocortin (MC5); human melanocortin MC5 membranes): + (“+” indicates greater than 50% inhibition at 10 μM)
- A3 radioligand binding inhibition (Human Melanocortin (MC3); human melanocortin MC3 membranes): + (“+” indicates greater than 50% inhibition at 10 μM)
